Results taken from ChEMBL document CHEMBL1201862, “PubChem BioAssay data set” (2004).
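Step 1: Grow cells in 96-well plates. Step 2: Expose to compound for 48 hours at 5 concentrations. Step 3: Interpolate endpoints linearly; if unreached, use highest concentration. GI50: concentration for 50% inhibition of growth.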 Calls of active or inactive are those of the source. Rule as the data show it: active = GI50 up to about 1.1 µM and inactive = higher.

Key:
Experiment in all cases: DTP human tumour cell line panel, 48 h
A549 = test system: A549
CAKI-1 = test system: CAKI-1
HCT-15 = test system: HCT-15
HOP-92 = test system: HOP-92
Hs-578T = test system: Hs-578T
K562 = test system: K562
M14 = test system: M14
MDA-MB-435 = test system: MDA-MB-435
MDA-N = test system: MDA-N
MOLT-4 = test system: MOLT-4
OVCAR-3 = test system: OVCAR-3
OVCAR-5 = test system: OVCAR-5
SF-539 = test system: SF-539
SK-MEL-28 = test system: SK-MEL-28
SK-MEL-5 = test system: SK-MEL-5
SNB-19 = test system: SNB-19
T47D = test system: T47D
TK-10 = test system: TK-10
NCI/ADR-RES = test system: NCI/ADR-RES
UO-31 = test system: UO-31

| Structure (SMILES) | GI50 (A549) | GI50 (CAKI-1) | GI50 (HCT-15) [µM] | GI50 (HOP-92) | GI50 (Hs-578T) | GI50 (K562) | GI50 (M14) | GI50 (MDA-MB-435) | GI50 (MDA-N) | GI50 (MOLT-4) | GI50 (OVCAR-3) | GI50 (OVCAR-5) | GI50 (SF-539) | GI50 (SK-MEL-28) | GI50 (SK-MEL-5) | GI50 (SNB-19) | GI50 (T47D) | GI50 (TK-10) | GI50 (NCI/ADR-RES) | GI50 (UO-31) |
| --- | --- | --- | --- | --- | --- | --- | --- | --- | --- | --- | --- | --- | --- | --- | --- | --- | --- | --- | --- | --- |
| COc1cccc(C2c3cc4c(cc3OC(O)C2C)OCO4)c1OC (stereo not drawn) | 4.02 µM (inactive) | 2.14 µM (inactive) | 2.1 | 1.66 µM (inactive) | 4.46 µM (inactive) | 2.7 µM (inactive) | 11.1 µM (inactive) | 5.97 µM (inactive) | 8.67 µM (inactive) | 2.16 µM (inactive) | 2.79 µM (inactive) | 16.2 µM (inactive) | 11.1 µM (inactive) | 13.3 µM (inactive) | 7.14 µM (inactive) | 11.2 µM (inactive) | 3.36 µM (inactive) | 7.4 µM (inactive) | – | – |
| CCn1c(SCC(=O)NNC(=S)Nc2ccc(C)cc2)nc2ccccc2c1=O | > 100 µM (inactive) | – | > 100 | – | > 100 µM (inactive) | 51.9 µM (inactive) | > 100 µM (inactive) | > 100 µM (inactive) | > 100 µM (inactive) | 27.1 µM (inactive) | > 100 µM (inactive) | > 100 µM (inactive) | > 100 µM (inactive) | > 100 µM (inactive) | > 100 µM (inactive) | > 100 µM (inactive) | 65.5 µM (inactive) | 85.5 µM (inactive) | > 100 µM (inactive) | 22 µM (inactive) |
| Cc1nc2ccc(NC(=S)Nc3ccccc3)cc2c(=O)n1-c1ccccc1 | – | > 100 µM (inactive) | > 100 | – | > 100 µM (inactive) | 46.3 µM (inactive) | – | > 100 µM (inactive) | > 100 µM (inactive) | 48.9 µM (inactive) | > 100 µM (inactive) | > 100 µM (inactive) | – | 62.2 µM (inactive) | 51.3 µM (inactive) | > 100 µM (inactive) | > 100 µM (inactive) | > 100 µM (inactive) | > 100 µM (inactive) | > 100 µM (inactive) |
| C=C1N(C=O)C(C)(C)N(O)C1(C)C | > 100 µM (inactive) | > 100 µM (inactive) | > 100 | > 100 µM (inactive) | > 100 µM (inactive) | – | > 100 µM (inactive) | > 100 µM (inactive) | – | 29.1 µM (inactive) | > 100 µM (inactive) | > 100 µM (inactive) | > 100 µM (inactive) | > 100 µM (inactive) | > 100 µM (inactive) | > 100 µM (inactive) | > 100 µM (inactive) | > 100 µM (inactive) | > 100 µM (inactive) | > 100 µM (inactive) |
| COC(=O)n1c(=O)n(-c2ccccc2)c(=O)n1C(=O)Nc1ccccc1 | > 100 µM (inactive) | > 100 µM (inactive) | > 100 | > 100 µM (inactive) | > 100 µM (inactive) | 51.3 µM (inactive) | > 100 µM (inactive) | > 100 µM (inactive) | – | > 100 µM (inactive) | > 100 µM (inactive) | > 100 µM (inactive) | – | > 100 µM (inactive) | > 100 µM (inactive) | > 100 µM (inactive) | > 100 µM (inactive) | > 100 µM (inactive) | > 100 µM (inactive) | > 100 µM (inactive) |
| COCN1C(=O)[C@@H]2C[C@@H](OC/C=C/CBr)CN2C(=O)c2ccccc21 | 17.1 µM (inactive) | 17.4 µM (inactive) | 17.9 | – | 26.5 µM (inactive) | – | 16.1 µM (inactive) | 14.9 µM (inactive) | 15.8 µM (inactive) | 17.7 µM (inactive) | – | 20.1 µM (inactive) | 17.5 µM (inactive) | 18.9 µM (inactive) | 14.4 µM (inactive) | 21.3 µM (inactive) | 19.5 µM (inactive) | 19.3 µM (inactive) | 26.9 µM (inactive) | 18.9 µM (inactive) |
| COc1cccc2c1C(=O)c1c(O)c3c(c(O)c1C2=O)CC(O)(C(C)=O)CC3OC1OC(COC(C)=O)C(OC(C)=O)C(OC(C)=O)C1OC(C)=O (stereo not drawn) | > 100 µM (inactive) | – | 47.2 | 0.515 µM (active) | 14.5 µM (inactive) | 18.5 µM (inactive) | 43.8 µM (inactive) | 88.7 µM (inactive) | – | 12.8 µM (inactive) | 14 µM (inactive) | 24.1 µM (inactive) | 16.8 µM (inactive) | 85.5 µM (inactive) | 23.9 µM (inactive) | 16 µM (inactive) | 38.8 µM (inactive) | 22.9 µM (inactive) | > 100 µM (inactive) | > 100 µM (inactive) |
| CCOC(=O)c1nnsc1NC(=O)NCCCCCCn1c(=O)n(CCCCCCNC(=O)Nc2snnc2C(=O)OCC)c(=O)n(CCCCCCNC(=O)Nc2snnc2C(=O)OCC)c1=O | > 100 µM (inactive) | 76.9 µM (inactive) | > 100 | – | 13.7 µM (inactive) | 66.4 µM (inactive) | > 100 µM (inactive) | 63.7 µM (inactive) | 36.8 µM (inactive) | 31.1 µM (inactive) | 57.8 µM (inactive) | > 100 µM (inactive) | – | – | 71.1 µM (inactive) | 18.6 µM (inactive) | 33 µM (inactive) | – | > 100 µM (inactive) | 45.4 µM (inactive) |
| COc1cc([C@@H]2c3cc4c(c(O)c3C[C@H]3COC(=O)[C@@H]32)OCO4)cc(OC)c1OC [BETA-PELTATIN A] | 0.015 µM (active) | 0.015 µM (active) | 0.015 | 0.015 µM (active) | 0.0241 µM (active) | 19.5 µM (inactive) | 0.0241 µM (active) | – | 0.000284 µM (active) | 0.015 µM (active) | 0.015 µM (active) | 21.4 µM (inactive) | – | 4.18 µM (inactive) | – | 0.015 µM (active) | 51.9 µM (inactive) | 31.6 µM (inactive) | – | 0.0693 µM (active) |
| NCCCCN(CCCN)C(=O)OCc1ccccc1 | > 100 µM (inactive) | > 100 µM (inactive) | > 100 | > 100 µM (inactive) | > 100 µM (inactive) | > 100 µM (inactive) | > 100 µM (inactive) | > 100 µM (inactive) | – | > 100 µM (inactive) | > 100 µM (inactive) | > 100 µM (inactive) | > 100 µM (inactive) | > 100 µM (inactive) | > 100 µM (inactive) | > 100 µM (inactive) | > 100 µM (inactive) | > 100 µM (inactive) | > 100 µM (inactive) | > 100 µM (inactive) |
| CCCCCCCCCOC(=O)c1cnc(Cl)cn1 | 26.4 µM (inactive) | 16.9 µM (inactive) | 17.4 | 42.4 µM (inactive) | 22.8 µM (inactive) | 36.8 µM (inactive) | 18.4 µM (inactive) | 19.9 µM (inactive) | – | 52.7 µM (inactive) | – | 29 µM (inactive) | 25.8 µM (inactive) | 24 µM (inactive) | 17.6 µM (inactive) | 20.9 µM (inactive) | 22.1 µM (inactive) | 20.5 µM (inactive) | 22.2 µM (inactive) | 18.5 µM (inactive) |
| Nc1ccn([C@H]2CO[C@@H](CO)[C@@H]2O)c(=O)n1 | – | > 100 µM (inactive) | > 100 | > 100 µM (inactive) | – | > 100 µM (inactive) | – | > 100 µM (inactive) | > 100 µM (inactive) | > 100 µM (inactive) | > 100 µM (inactive) | > 100 µM (inactive) | > 100 µM (inactive) | > 100 µM (inactive) | > 100 µM (inactive) | – | > 100 µM (inactive) | > 100 µM (inactive) | > 100 µM (inactive) | > 100 µM (inactive) |
